Measurements taken from patent US20060194837A1, “Tetrahydroisoquinoline compounds” (priority 2004, published 2006).

Key:
human SERT = biological target: T1, human SERT (Homo sapiens, UniProt P31645); test: Human SERT binding (3H-citalopram displacement); details: HEK293 membranes expressing human SERT, rt 1 h
T1 construct: expressed in transfected cells; host or cells: HEK293 membranes
Procedure: Homogenized HEK293 (Human Embryonic Kidney) membranes expressing the human SERT were incubated with ^3H-citalopram (SERT) at rt for 1 h in 50 mM Tris, 120 mM NaCl, 5 mM KCl (pH 7.4). […] The membranes were washed and the radioactivity was counted as above.

Rat SERT = biological target: T2, Rat SERT (Rattus norvegicus, UniProt P31652); test: Rat brain SERT binding ([3H]-citalopram displacement); details: rat brain membranes without cerebellum, 0.6 nM [3H]-citalopram, 60 min at 25° C.; read-out: Rat SERT Ki
T2 construct: A rat brain without cerebellum (Zivic Laboratories, Inc.—Pittsburgh, Pa.) was homogenized; tissue Zivic Laboratories, Inc; host or cells: rat brain without cerebellum, membranes
T2 sequence (P31652 whole entry): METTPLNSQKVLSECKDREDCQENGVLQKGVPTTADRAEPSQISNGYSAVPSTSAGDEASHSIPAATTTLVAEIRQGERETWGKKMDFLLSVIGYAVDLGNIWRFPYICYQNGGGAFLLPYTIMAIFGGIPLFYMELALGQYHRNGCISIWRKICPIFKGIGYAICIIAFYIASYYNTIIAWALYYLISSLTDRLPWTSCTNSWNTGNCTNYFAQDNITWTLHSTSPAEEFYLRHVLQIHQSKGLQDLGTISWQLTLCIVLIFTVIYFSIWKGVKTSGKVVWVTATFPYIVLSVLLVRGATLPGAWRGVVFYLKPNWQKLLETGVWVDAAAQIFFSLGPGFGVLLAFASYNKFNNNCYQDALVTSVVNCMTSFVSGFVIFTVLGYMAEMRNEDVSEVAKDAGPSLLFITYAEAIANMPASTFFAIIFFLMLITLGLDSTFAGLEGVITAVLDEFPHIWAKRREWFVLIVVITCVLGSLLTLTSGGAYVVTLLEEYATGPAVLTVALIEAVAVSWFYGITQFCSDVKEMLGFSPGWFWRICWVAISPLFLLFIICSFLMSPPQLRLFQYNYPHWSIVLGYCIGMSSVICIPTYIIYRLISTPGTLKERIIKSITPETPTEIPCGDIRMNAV
Procedure: The supernatant was removed and re-centrifuged at 15,000 rpm for 30 min. […] Membranes were incubated with 0.6 nM [^3H]-Citalopram plus/minus test compounds for 60 min at 25° C. and harvested by rapid filtration over GF/C glass fiber filters (pretreated with 0.3% polyethylenimine) followed by four washes with ice-cold buffer.

human H3 receptor = biological target: T3, human H3 receptor (Homo sapiens, UniProt Q9Y5N1); test: H3 receptor binding (N-[3H]-α-methylhistamine displacement); details: membranes of SK-N-MC cells expressing cloned human H3 receptor, 0.8 nM N-[3H]-α-methylhistamine, 60 min at 25° C.
T3 construct: expressed in transfected cells
T3 sequence (Q9Y5N1 whole entry): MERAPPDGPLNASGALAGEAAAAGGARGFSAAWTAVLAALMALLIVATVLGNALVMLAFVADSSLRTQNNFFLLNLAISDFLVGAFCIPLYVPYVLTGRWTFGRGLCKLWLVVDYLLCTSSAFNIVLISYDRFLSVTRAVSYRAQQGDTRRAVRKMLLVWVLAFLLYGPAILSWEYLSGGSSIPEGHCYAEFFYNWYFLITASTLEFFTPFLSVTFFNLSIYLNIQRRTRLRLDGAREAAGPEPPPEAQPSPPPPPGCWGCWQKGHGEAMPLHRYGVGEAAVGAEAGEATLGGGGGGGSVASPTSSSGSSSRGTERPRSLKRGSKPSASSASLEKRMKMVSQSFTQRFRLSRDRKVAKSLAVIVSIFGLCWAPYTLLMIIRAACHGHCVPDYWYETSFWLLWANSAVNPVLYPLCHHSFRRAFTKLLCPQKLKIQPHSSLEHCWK

T1 sequence (P31645 whole entry): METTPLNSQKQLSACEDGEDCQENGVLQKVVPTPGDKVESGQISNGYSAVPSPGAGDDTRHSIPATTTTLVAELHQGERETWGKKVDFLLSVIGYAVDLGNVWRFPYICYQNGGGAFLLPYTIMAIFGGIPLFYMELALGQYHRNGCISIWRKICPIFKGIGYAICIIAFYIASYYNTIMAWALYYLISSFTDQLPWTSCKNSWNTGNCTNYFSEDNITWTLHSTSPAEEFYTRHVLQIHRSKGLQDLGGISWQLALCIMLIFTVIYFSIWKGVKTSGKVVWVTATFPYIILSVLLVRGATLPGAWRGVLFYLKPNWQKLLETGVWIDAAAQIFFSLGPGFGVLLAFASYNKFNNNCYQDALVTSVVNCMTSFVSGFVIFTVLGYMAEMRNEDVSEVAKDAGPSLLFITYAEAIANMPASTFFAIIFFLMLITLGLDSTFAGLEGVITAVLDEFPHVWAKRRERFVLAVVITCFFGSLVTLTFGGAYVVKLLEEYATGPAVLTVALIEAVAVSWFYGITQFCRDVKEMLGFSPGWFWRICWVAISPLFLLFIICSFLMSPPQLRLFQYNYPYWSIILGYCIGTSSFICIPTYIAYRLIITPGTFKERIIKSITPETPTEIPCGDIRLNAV

Row | Structure (SMILES) | Ki (human SERT) | Ki (Rat SERT) | Ki (human H3 receptor)
1 | COc1ccc(C2CN(C)Cc3cc(OCCCN4CCN(C(=O)C(C)C)CC4)ccc32)cc1 (stereo not drawn) [Example 5, 1-(4-{3-[4-(4-Methoxy-phenyl)-2-methyl-1,2,3,4-tetrahydro-isoquinolin-7-yloxy]-propyl}-piperazin-1-yl)-2-methyl-propan-1-one] | 18 nM | 27 nM | 594 nM
2 | COc1ccc(C2CN(C)Cc3cc(CCCCN4CCN(C(C)C)CC4)ccc32)cc1 (stereo not drawn) [Example 283, 7-[4-(4-Isopropyl-piperazin-1-yl)-butyl]-4-(4-methoxy-phenyl)-2-methyl-1,2,3,4-tetrahydro-isoquinoline] | 7 nM | 4 nM | 13 nM
3 | CN1Cc2cc(OCCCN3CCC(F)CC3)ccc2C(c2ccc(C#N)cc2)C1 (stereo not drawn) [Example 136, 4-{7-[3-(4-Fluoro-piperidin-1-yl)-propoxy]-2-methyl-1,2,3,4-tetrahydro-isoquinolin-4-yl}-benzonitrile] | 20 nM | 9 nM | 4 nM
4 | COCCN(CCCOc1ccc2c(c1)CN(C)CC2c1ccc(OC)cc1)CCOC (stereo not drawn) [Example 17, Bis-(2-methoxy-ethyl)-{3-[4-(4-methoxy-phenyl)-2-methyl-1,2,3,4-tetrahydro-isoquinolin-7-yloxy]-propyl}-amine] | 7 nM | 10 nM | 273 nM
5 | COc1ccc(C2CN(C)Cc3cc(OCCCN4CCN(C(=O)c5cn(C)cn5)CC4)ccc32)cc1 (stereo not drawn) [Example 14, (4-{3-[4-(4-Methoxy-phenyl)-2-methyl-1,2,3,4-tetrahydro-isoquinolin-7-yloxy]-propyl}-piperazin-1-yl)-(1-methyl-1H-imidazol-4-yl)-methanone] | 18 nM | 19 nM | 2000 nM
6 | CN1Cc2cc(OCCCN3CCC(F)CC3)ccc2C(c2ccc(N3CCOCC3)cc2)C1 (stereo not drawn) [Example 134, 7-[3-(4-Fluoro-piperidin-1-yl)-propoxy]-2-methyl-4-(4-morpholin-4-yl-phenyl)-1,2,3,4-tetrahydro-isoquinoline] | 30 nM | 28 nM | 2 nM
7 | CSc1ccc(C2CN(C)Cc3cc(OCC4CCN(C5CCC5)CC4)ccc32)cc1 (stereo not drawn) [Example 104, 7-(1-Cyclobutyl-piperidin-4-ylmethoxy)-2-methyl-4-(4-methylsulfanyl-phenyl)-1,2,3,4-tetrahydro-isoquinoline] | 3 nM | 5 nM | 11 nM
8 | CN1Cc2cc(OCCCN3CCC(F)CC3)ccc2C(c2cccc(F)c2)C1 (stereo not drawn) [Example 48, 4-(3-Fluoro-phenyl)-7-[3-(4-fluoro-piperidin-1-yl)-propoxy]-2-methyl-1,2,3,4-tetrahydro-isoquinoline] | 118 nM | 31 nM | 6 nM
9 | CCN(CCCOc1ccc2c(c1)CN(C)CC2c1ccc(OC)cc1)CCOC (stereo not drawn) [Example 40, Ethyl-(2-methoxy-ethyl)-{3-[4-(4-methoxy-phenyl)-2-methyl-1,2,3,4-tetrahydro-isoquinolin-7-yloxy]-propyl}-amine] | 8 nM | 9 nM | 20 nM
10 | CCCN1CCC(COc2ccc3c(c2)CN(C)CC3c2ccc(SC)cc2)CC1 (stereo not drawn) [Example 109, 2-Methyl-4-(4-methylsulfanyl-phenyl)-7-(1-propyl-piperidin-4-ylmethoxy)-1,2,3,4-tetrahydro-isoquinoline] | 3 nM | 10 nM | 8 nM
11 | COc1ccc(C2CN(C(C)C)Cc3cc(OCCCN4CCCCC4)ccc32)cc1 (stereo not drawn) [Example 68, 2-Isopropyl-4-(4-methoxy-phenyl)-7-(3-piperidin-1-yl-propoxy)-1,2,3,4-tetrahydro-isoquinoline] | 89 nM | 22 nM | 1 nM
12 | COc1ccc(C2CN(C)Cc3cc(OCCCN4CCN(C(=O)C5CC5)CC4)ccc32)cc1 (stereo not drawn) [Example 7, Cyclopropyl-(4-{3-[4-(4-methoxy-phenyl)-2-methyl-1,2,3,4-tetrahydro-isoquinolin-7-yloxy]-propyl}-piperazin-1-yl)-methanone] | 14 nM | 14 nM | 315 nM
13 | COc1ccc(C2CN(C)Cc3cc(OCCCN4CCC[C@@H]4CO)ccc32)cc1 (stereo partly drawn) [Example 30, (1-{3-[4-(4-Methoxy-phenyl)-2-methyl-1,2,3,4-tetrahydro-isoquinolin-7-yloxy]-propyl}-pyrrolidin-(2R)-yl)-methanol] | 2 nM | 2 nM | 3 nM
14 | COc1ccc(C2CN(C)Cc3cc(OCCCN4CCCCC4CCO)ccc32)cc1 (stereo not drawn) [Example 36, 2-(1-{3-[4-(4-Methoxy-phenyl)-2-methyl-1,2,3,4-tetrahydro-isoquinolin-7-yloxy]-propyl}-piperidin-2-yl)-ethanol] | 3 nM | 2 nM | 7 nM
15 | CSc1ccc(C2CN(C)Cc3cc(OC4CCN(C(C)C)CC4)ccc32)cc1 (stereo not drawn) [Example 118, 7-(1-Isopropyl-piperidin-4-yloxy)-2-methyl-4-(4-methylsulfanyl-phenyl)-1,2,3,4-tetrahydro-isoquinoline] | 4 nM | 8 nM | 1 nM
16 | COc1ccc(C2CN(C)Cc3cc(OCC4CCN(CC(C)C)CC4)ccc32)cc1 (stereo not drawn) [Example 110, 7-(1-Isobutyl-piperidin-4-ylmethoxy)-4-(4-methoxy-phenyl)-2-methyl-1,2,3,4-tetrahydro-isoquinoline] | 5 nM | 4 nM | 5 nM
17 | CCN1CCN(CCCOc2ccc3c(c2)CN(C)CC3c2ccc(OC)cc2)CC1 (stereo not drawn) [Example 198, 7-[3-(4-Ethyl-piperazin-1-yl)-propoxy]-4-(4-methoxy-phenyl)-2-methyl-1,2,3,4-tetrahydro-isoquinoline] | 2 nM | 2 nM | 10 nM
18 | CN1Cc2cc(OCCCN3CCC(F)CC3)ccc2C(c2ccc(Sc3ncc[nH]3)nc2)C1 (stereo not drawn) [Example 195, 7-[3-(4-Fluoro-piperidin-1-yl)-propoxy]-4-[6-(1H-imidazol-2-ylsulfanyl)-pyridin-3-yl]-2-methyl-1,2,3,4-tetrahydro-isoquinoline] | 34 nM | 8 nM | 3 nM
19 | COc1ccc(C2CN(C)Cc3cc(OCC4CN(C(C)C)CCO4)ccc32)cc1 (stereo not drawn) [Example 254, 7-(4-Isopropyl-morpholin-2-ylmethoxy)-4-(4-methoxy-phenyl)-2-methyl-1,2,3,4-tetrahydro-isoquinoline] | 7 nM | 9 nM | 9 nM
20 | CSc1ccc(C2CN(C)Cc3cc(OC4CCN(C)CC4)ccc32)cc1 (stereo not drawn) [Example 243, 2-Methyl-7-(1-methyl-piperidin-4-yloxy)-4-(4-methylsulfanyl-phenyl)-1,2,3,4-tetrahydro-isoquinoline] | 6 nM | 5 nM | 22 nM
21 | Cc1ccc(C2CN(C)Cc3cc(OCCCN4CCC(F)CC4)ccc32)cc1 (stereo not drawn) [Example 126, 7-[3-(4-Fluoro-piperidin-1-yl)-propoxy]-2-methyl-4-p-tolyl-1,2,3,4-tetrahydro-isoquinoline] | 15 nM | 3 nM | 8 nM
22 | C[C@H]1COCCN1CCCOc1ccc2c(c1)CN(C)CC2c1ccc(C#N)cc1 (stereo partly drawn) [Example 135, 4-{2-Methyl-7-[3-(3S-methyl-morpholin-4-yl)-propoxy]-1,2,3,4-tetrahydro-isoquinolin-4-yl}-benzonitrile] | 15 nM | 27 nM | 2 nM
23 | COc1ccc(C2CN(C)Cc3cc(OCCCN4CCN(C(=O)C5CCC5)CC4)ccc32)cc1 (stereo not drawn) [Example 6, Cyclobutyl-(4-{3-[4-(4-methoxy-phenyl)-2-methyl-1,2,3,4-tetrahydro-isoquinolin-7-yloxy]-propyl}-piperazin-1-yl)-methanone] | 15 nM | 15 nM | 534 nM
24 | COc1ccc(C2CN(C)Cc3cc(OCC4CN(C5CC5)CCO4)ccc32)cc1 (mixture of isomers) [Example 259, 7-(4-Cyclopropyl-morpholin-2-ylmethoxy)-4-(4-methoxy-phenyl)-2-methyl-1,2,3,4-tetrahydro-isoquinoline] | 22 nM | 13 nM | 13 nM
25 | COc1ccc(C2CN(C)Cc3cc(OCCCN4CCC(CCO)CC4)ccc32)cc1 (stereo not drawn) [Example 26, 2-(1-{3-[4-(4-Methoxy-phenyl)-2-methyl-1,2,3,4-tetrahydro-isoquinolin-7-yloxy]-propyl}-piperidin-4-yl)-ethanol] | 5 nM | 2 nM | 12 nM
26 | COc1ccc(C2CN(C)Cc3cc(OCC4CCN(C)CC4)ccc32)cc1 (stereo not drawn) [Example 84, 4-(4-Methoxy-phenyl)-2-methyl-7-(1-methyl-piperidin-4-ylmethoxy)-1,2,3,4-tetrahydro-isoquinoline] | 7 nM | 7 nM | 3 nM
27 | COc1ccc(C2CN(C)Cc3cc(OCCCN4CCC(C#N)CC4)ccc32)cc1 (single isomer, unassigned) [Example 37A, 1-{3-[4-(4-Methoxy-phenyl)-2-methyl-1,2,3,4-tetrahydro-isoquinolin-7-yloxy]-propyl}-piperidine-4-carbonitrile] | 13 nM | 9 nM | 89 nM
28 | COc1ccc(C2CN(C)Cc3cc(C#CCCN4CCC(F)(F)CC4)ccc32)cc1 (stereo not drawn) [Example 274, 7-[4-(4,4-Difluoro-piperidin-1-yl)-but-1-ynyl]-4-(4-methoxy-phenyl)-2-methyl-1,2,3,4-tetrahydro-isoquinoline] | 27 nM | 14 nM | 65 nM
